Measurements: patent US10233186B2, “Inhibitors of activin receptor-like kinase” (BLUEPRINT MEDICINES CORPORATION, priority 2016, dated 2019)

Experiments:
human ALK2 R206H = molecular target: T1, human ALK2 R206H (Homo sapiens, UniProt Q04771, R206H); test: Cell-based ALK2-R206H cell activity assay (Smad1-Ser463/Ser465 phosphorylation by AlphaLISA in HEK293-ALK2-R206H cells); conditions: read-out: Cell Line (Cell Assay IC50)
T1 construct: expressed in transfected cells; host or cells: HEK293 (ATCC CRL1573), lentivirus transduction, blasticidin selection
T1 sequence (Q04771 21-509 R206H): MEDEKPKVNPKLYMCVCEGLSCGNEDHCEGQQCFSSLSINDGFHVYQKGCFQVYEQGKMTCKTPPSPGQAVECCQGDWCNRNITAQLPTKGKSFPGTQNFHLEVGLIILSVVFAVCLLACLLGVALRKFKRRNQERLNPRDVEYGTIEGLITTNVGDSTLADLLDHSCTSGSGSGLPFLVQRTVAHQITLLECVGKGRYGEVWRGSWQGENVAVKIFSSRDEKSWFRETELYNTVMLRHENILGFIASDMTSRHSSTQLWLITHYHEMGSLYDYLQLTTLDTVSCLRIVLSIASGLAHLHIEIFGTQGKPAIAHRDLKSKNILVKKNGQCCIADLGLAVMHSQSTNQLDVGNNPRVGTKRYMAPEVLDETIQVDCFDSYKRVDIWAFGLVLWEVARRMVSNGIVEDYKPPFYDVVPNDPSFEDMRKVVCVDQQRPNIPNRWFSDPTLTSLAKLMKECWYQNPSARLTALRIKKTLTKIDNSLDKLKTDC
Experimental: A HEK293 (ATCC, Cat^# CRL1573) based stable cell line expressing human ALK2 R206H cDNA (synthesized by GeneScript, Piscataway, N.J.) and a FLAG tag at the C-terminus was generated by lentivirus transduction and subsequent blasticidin (Life Technologies, Cat^#-A1113902) selection at 10 μg/ml for >2 wks. This cell line was named HEK293-ALK2-R206H.
Test compounds were first diluted to 4 mM or 0.4 mM and then serially diluted 3-fold into 10 different concentrations using DMSO. […] Two μl of the diluted compounds were then dispensed into the HEK293-ALK2-R206H cell-containing wells of the microplates in duplicates. In this way, each compound was tested in 10 doses (3-fold serial dilution with the top concentration being 10 μM or 1 μM). Liquid handling was achieved using a Bravo Automated Liquid Handling Platform (Agilent Technologies). DMSO without compound was used as a negative control. The positive control was 1 μM LDN193189, a known bone morphogenetic protein (BMP inhibitor).
The 10-point dose response curve was used to calculate the IC50 values.
(§1) Blank values in the table indicate that the particular compound was not tested in this assay.

[1] = molecular target: T2, ALK2 R206H (GST-tagged mutant ALK2) (Homo sapiens, UniProt Q04771, R206H); test: ALK binding assay (LANTHASCREEN TR-FRET competitive binding, displacement of Kinase Tracer 178); conditions: ALK2 R206H, LANTHASCREEN TR-FRET competitive binding; read-out: Binding Assay (IC50)
T2 construct: purchased Carna Bioscience or ThermoFisher 09-148 or PV6232
T2 sequence (Q04771 21-509 R206H): T1 sequence (Q04771 21-509 R206H)
Experimental: Binding assays were conducted using the LANTHASCREEN® technology (ThermoFisher Scientific). LANTHASCREEN® is a competitive binding, displacement assay where the assumed steady state occupancy of the binding site is measured using a time-resolved, fluorescence energy transfer (TR-FRET) readout between a fluorescent tracer and Europium (Eu)-tagged antibody specific for the kinase or expression tag (e.g. GST) of interest. Displacement of the tracer by a compound of the disclosure reduces, and is directly proportional to, the TR-FRET between the tracer and the antibody. Tracer was used at a concentration equal to or near to its Kd for the kinase.
In all cases, the kinase (2-5 nM) was mixed with Eu-tagged antibody (10 nM) mix and tracer (50 nM) were incubated with test compound titrations prepared in 100% DMSO (1% DMSO final) for 30 minutes at room temperature. All reagents and compounds were dissolved in Kinase Buffer A (ThermoFisher) to achieve the final concentration. […] This readout was normalized to 0% and 100% inhibited control wells, plotted against inhibitor concentration, and fitted to a 4-parameter log dose response curve.
as §1

SMILES	IC50 (human ALK2 R206H)	IC50 [1]
O=C(C1CC1)N1CCN(c2ccnn3cc(-c4ccc(C5CNC5)cc4)cc23)CC1 [Compound 102]	100 to 500 nM	< 10 nM
O=C(C1CC1)N1CCN(c2ccnn3cc(-c4cnn(C5CCCC5)c4)cc23)CC1 [Compound 103]	> 500 nM	10 to 50 nM
O=C(C1CC1)N1CCN(c2ccnn3cc(-c4cnn(C5CCNC5)c4)cc23)CC1 (stereo not shown) [Compound 104]	100 to 500 nM	< 10 nM
CC(C)(C#N)c1ccc(-c2cc3c(N4CCN(C(=O)C5CC5)CC4)ccnn3c2)cc1 [Compound 110]	100 to 500 nM	10 to 50 nM
O=C(C1CC1)N1CCN(c2ccnn3cc(-c4ccc(C5=NCCN5)cc4)cc23)CC1 [Compound 111, cyclopropyl(4-(6-(4-(4,5-dihydro-1H-imidazol-2-yl)phenyl)pyrrolo[1,2-b]pyridazin-4-yl)piperazin-1-yl)methanone]	100 to 500 nM	< 10 nM
O=C(C1CC1)N1CCN(c2ccnn3cc(-c4ccc(C5CCNC5)cc4)cc23)CC1 (stereo not shown) [Compound 112]	100 to 500 nM	< 10 nM
O=C(C1CC1)N1CCN(c2ccnn3cc(-c4ccc(OC5CNC5)cc4)cc23)CC1 [Compound 115]	100 to 500 nM	< 10 nM
O=C(C1CC1)N1CCN(c2ccnn3cc(-c4cnn(C5CCNCC5)c4)cc23)CC1 [Compound 117]	100 to 500 nM	< 10 nM
CCN1CC(n2cc(-c3cc4c(N5CCN(C(=O)C6CC6)CC5)ccnn4c3)cn2)C1 [Compound 118]	100 to 500 nM	< 10 nM
O=C(C1CC1)N1CCN(c2ccnn3cc(-c4ccc5c(c4)COC54CNC4)cc23)CC1 [Compound 120]	100 to 500 nM	< 10 nM
O=C(C1CC1)N1CCN(c2ccnn3cc(-c4ccc(C5CCCNC5)cc4)cc23)CC1 (stereo not shown) [Compound 123]	100 to 500 nM	< 10 nM
O=C(C1CC1)N1CCN(c2ccnn3cc(-c4cccc(C5CNCCO5)c4)cc23)CC1 (stereo not shown) [Compound 128]	100 to 500 nM	10 to 50 nM
O=C(C1CC1)N1CCN(c2ccnn3cc(-c4ccc([C@H]5CNCCO5)cc4)cc23)CC1 [Compound 130, (S)-cyclopropyl(4-(6-(4-(morpholin-2-yl)phenyl)pyrrolo[1,2-b]pyridazin-4-yl)piperazin-1-yl)methanone]	100 to 500 nM	< 10 nM
O=C(C1CC1)N1CCN(c2ccnn3cc(-c4ccc([C@@H]5CNCCO5)cc4)cc23)CC1 [Compound 131, (R)-cyclopropyl(4-(6-(4-(morpholin-2-yl)phenyl)pyrrolo[1,2-b]pyridazin-4-yl)piperazin-1-yl)methanone]	100 to 500 nM	< 10 nM
O=C(C1CC1)N1CCN(c2ccnn3cc(-c4ccc(OCC5CNC5)cc4)cc23)CC1 [Compound 134]	100 to 500 nM	< 10 nM
O=C(C1CC1)N1CCN(c2ccnn3cc(-c4ccc(N5CCNCC5)nc4)cc23)CC1 [Compound 135]	100 to 500 nM	10 to 50 nM
CCNC(=O)N1CCN(c2ccnn3cc(-c4ccc([C@@H]5CNCCO5)cc4)cc23)CC1 [Compound 142]	100 to 500 nM	< 10 nM
CCOC(=O)N1CCN(c2ccnn3cc(-c4ccc(C5CNCCO5)cc4)cc23)CC1 (stereo not shown) [Compound 144]	100 to 500 nM	< 10 nM
O=C(C1CC1)N1CCN(c2ccnn3cc(-c4ccc(N5CC6(CNC6)C5)cc4)cc23)CC1 [Compound 146]	100 to 500 nM	< 10 nM
CN1CCN(c2ccc(-c3cc4c(N5CCN(C(=O)C6CC6)CC5)ccnn4c3)cc2)CC1 [Compound 153]	100 to 500 nM	< 10 nM
O=C(C1CCC1)N1CCN(c2ccnn3cc(-c4ccc(N5CCNCC5)cc4)cc23)CC1 [Compound 154]	100 to 500 nM	< 10 nM
C[C@@H]1CN(c2ccc(-c3cc4c(N5CCN(C(=O)C6CC6)CC5)ccnn4c3)cc2)CCN1 [Compound 155]	100 to 500 nM	< 10 nM

Further lines, results first:

IC50 (human ALK2 R206H)	IC50 [1]	SMILES
100 to 500 nM	< 10 nM	O=C(C1CC1)N1CCN(c2ccnn3cc(-c4cnn(C5CNC5)c4)cc23)CC1 [Compound 100]
< 100 nM	< 10 nM	O=C(C1CC1)N1CCN(c2ccnn3cc(-c4cc5c(s4)CNCC5)cc23)CC1 [Compound 107]
< 100 nM	< 10 nM	O=C(C1CC1)N1CCN(c2ccnn3cc(-c4nc5c(s4)CNCC5)cc23)CC1 [Compound 109]
< 100 nM	< 10 nM	O=C(C1CC1)N1CCN(c2ccnn3cc(-c4ccc(C5CCCN5)cc4)cc23)CC1 (stereo not shown) [Compound 113]
< 100 nM	< 10 nM	O=C(C1CC1)N1CCN(c2ccnn3cc(-c4cnn(C5CCCNC5)c4)cc23)CC1 (stereo not shown) [Compound 116]
< 100 nM	< 10 nM	O=C(C1CC1)N1CCN(c2ccnn3cc(-c4ccc(C5CCNCC5)cc4)cc23)CC1 [Compound 122]
< 100 nM	< 10 nM	CCN1CC(c2ccc(-c3cc4c(N5CCN(C(=O)C6CC6)CC5)ccnn4c3)cc2)C1 [Compound 124]
< 100 nM	< 10 nM	O=C(C1CC1)N1CCN(c2ccnn3cc(-c4ccc(C5CCCCN5)cc4)cc23)CC1 (stereo not shown) [Compound 125]
< 100 nM	< 10 nM	O=C(C1CC1)N1CCN(c2ccnn3cc(-c4ccc(N5CCNCC5)cc4)cc23)CC1 [Compound 127, cyclopropyl(4-(6-(4-(piperazin-1-yl)phenyl)pyrrolo[1,2-b]pyridazin-4-yl)piperazin-1-yl)methanone]
< 100 nM	< 10 nM	O=C(C1CC1)N1CCN(c2ccnn3cc(-c4ccc(C5CNCCO5)cc4)cc23)CC1 (stereo not shown) [Compound 129]
< 100 nM	< 10 nM	O=C(C1CC1)N1CCN(c2ccnn3cc(-c4ccc(OCC5CCN5)cc4)cc23)CC1 (stereo not shown) [Compound 132]
< 100 nM	< 10 nM	O=C(C1CC1)N1CCN(c2ccnn3cc(-c4ccc(OC5CCNC5)cc4)cc23)CC1 (stereo not shown) [Compound 133]
< 100 nM	< 10 nM	O=C(C1CC1)N1CCN(c2ccnn3cc(-c4ccc(C5CNCC5F)cc4)cc23)CC1 (stereo not shown) [Compound 137]
< 100 nM	< 10 nM	CCNC(=O)N1CCN(c2ccnn3cc(-c4ccc(N5CCNCC5)cc4)cc23)CC1 [Compound 140]
< 100 nM	< 10 nM	CCOC(=O)N1CCN(c2ccnn3cc(-c4ccc(N5CCNCC5)cc4)cc23)CC1 [Compound 143]
< 100 nM	< 10 nM	CCOC(=O)N1CCN(c2ccnn3cc(-c4ccc(C5CNCC5F)cc4)cc23)CC1 (stereo not shown) [Compound 145]
< 100 nM	< 10 nM	CCN1CCC(c2ccc(-c3cc4c(N5CCN(C(=O)C6CC6)CC5)ccnn4c3)cc2)C1 (stereo not shown) [Compound 147]
< 100 nM	< 10 nM	CCN1CC[C@@H](c2ccc(-c3cc4c(N5CCN(C(=O)C6CC6)CC5)ccnn4c3)cc2)C1 [Compound 148]
< 100 nM	< 10 nM	CCN1CC[C@H](c2ccc(-c3cc4c(N5CCN(C(=O)C6CC6)CC5)ccnn4c3)cc2)C1 [Compound 149]
< 100 nM	< 10 nM	CC(C)N1CC(c2ccc(-c3cc4c(N5CCN(C(=O)C6CC6)CC5)ccnn4c3)cc2)C1 [Compound 150, cyclopropyl(4-(6-(4-(1-isopropylazetidin-3-yl)phenyl)pyrrolo[1,2-b]pyridazin-4-yl)piperazin-1-yl)methanone]
< 100 nM	< 10 nM	C[C@@H]1CN(c2ccnn3cc(-c4ccc(N5CCNCC5)cc4)cc23)CCN1C(=O)C1CC1 [Compound 152]
< 100 nM	< 10 nM	C[C@H]1CN(c2ccc(-c3cc4c(N5CCN(C(=O)C6CC6)CC5)ccnn4c3)cc2)CCN1 [Compound 156]
